Laboratory results from patent US20250049036A1 (priority 2021, published 2025).

Experiments:
Pyricularia oryzae = experiment: microbe, parasite or virus in culture; type: cell-based; conditions: 168 h, read-out: control compared to the untreated check
Colletotrichum capsici = Colletotrichum capsici (anthracnose) mycelial radial growth on potato dextrose agar; type: cell-based; conditions: Colletotrichum truncatum, 168 h, 25° C., seven days, read-out: control compared to the untreated check
Experimental: The compounds were dissolved in 0.3% dimethyl sulfoxide and then added to potato dextrose agar medium just prior to dispensing it into petri dishes. 5 mL medium, with the compound in the desired concentration, was dispensed into 60 mm sterile petri-plates. After solidification, each plate was seeded with a 5 mm size mycelial disc taken from the periphery of an actively growing virulent culture plate. The plates were incubated in growth chambers at 25° C. temperature and 60% relative humidity for seven days and the radial growth was measured and compared to the one of the untreated control.

Parastagonospora nodorum = Parastagonospora nodorum (PARANO) spore growth inhibition in liquid medium, 96-well microtiter plate, OD 600; type: cell-based; conditions: spore suspension in PDB liquid medium, 18° C., 5-6 days, OD at 600, read-out: control compared to the untreated check
Experimental: Potato dextrose (PDB) liquid medium (Difco) containing a PARANO (10^5 spores/ml) spore suspension was prepared. For the inhibition assay, each test compound was solved in dimethyl sulfoxide. 100 μl of the test compound in media-solution was added to a 96-well microtiter plate, consequently, the same volume (100 μl) of spore suspension was added to the well making the final test concentrations and the plate was incubated at 18° C. for 5-6 days. The growth inhibition was evaluated by measuring the OD at 600. Percent inhibition was calculated with the below formula: […]

Botrytis cinerea = Botrytis cinerea liq. (BOTRCI) spore growth inhibition in liquid medium, 96-well microtiter plate, OD 405 nm; type: cell-based; conditions: spore suspension in YBA liquid medium, 22° C., 5-6 days, OD at 405 nm, read-out: control compared to the untreated check
Experimental: Yeast bacterial peptone and sodium acetate (YBA) liquid medium containing a BOTRCI (10^4 spores/ml) spore suspension was prepared. For the inhibition assay, each test compound was solved in dimethyl sulfoxide. 100 μl of the test compound in media-solution was added to a 96-well microtiter plate, consequently, the same volume (100 μl) of spore suspension was added to the well making the final test concentrations and the plate was incubated at 22° C. for 5-6 days. The growth inhibition was evaluated by measuring the OD at 405 nm. Percent inhibition was calculated with the below formula:
Where T=treatment, C=control, and B=blank

Phytophthora infestans = experiment: microbe, parasite or virus in culture; type: cell-based; conditions: 168 h, read-out: control compared to the untreated check
Phakopsora pachyrhizi = Phakopsora pachyrhizi test on soybean, preventive, greenhouse; type: in vivo; conditions: preventive spray on soybean, inoculated one day after treatment, read-out: control (efficacy, disease severity) compared to the untreated check
Experimental: The respective compound was dissolved in 2% dimethyl sulfoxide/acetone and then mixed with water containing emulsifier to the calibrated spray volume of 30 mL. Each spray solution was poured into a spray bottle for further application.
To test the preventive activity of a compound, healthy young soybean plants, raised in the greenhouse, were sprayed with the active compound preparation at the stated application rate inside the spray cabinets using hollow cone nozzles. One day after treatment, the plants were inoculated with a conidial suspension containing 2×10^5 Phakopsora pachyrhizi inoculum. The inoculated plants were then kept in a greenhouse chamber at 22-24° C. temperature and 80-90% relative humidity for disease expression.

SMILES	inhibition of growth at 300 ppm (Parastagonospora nodorum) [%]	inhibition of growth at 300 ppm (Botrytis cinerea) [%]	inhibition of growth at 300 ppm (Phytophthora infestans) [%]	other results
CC(c1ccccc1)C(C)(C)NC(=O)c1cnc2c(ccn2C)c1 (centres unmarked) [Compound 8, 1-methyl-N-(2-methyl-3-phenylbutan-2-yl)-1H-pyrrolo[2,3-b] pyridine-5-carboxamide]	≥ 70	≥ 70	–	inhibition of growth at 300 ppm (Pyricularia oryzae): ≥ 70%; inhibition of growth at 300 ppm (Colletotrichum capsici): ≥ 70%
Cn1ccc2cc(C(=O)NC(C)(C)Cc3ccc(F)cc3F)cnc21 [Compound 20]	–	≥ 70	–	inhibition of growth at 300 ppm (Pyricularia oryzae): ≥ 70%; inhibition of growth at 300 ppm (Colletotrichum capsici): ≥ 70%
Cc1cccc(CC(C)(C)NC(=O)c2cnc3c(ccn3C)c2)c1 [Compound 27, 1-methyl-N-(2-methyl-1-(m-tolyl)propan-2-yl)-1H-pyrrolo[2,3-b] pyridine-5-carboxamide]	≥ 70	–	≥ 70	–
COc1nc2c(ccn2C)cc1C(=O)NC(C)(C)Cc1ccccc1 [Compound 91, 6-methoxy-1-methyl-N-(2-methyl-1-phenylpropan-2-yl)-1H-pyrrolo[2,3-b] pyridine-5-carboxamide]	–	–	≥ 70	–
CC(C)(CO)NC(=O)c1cnc2ccsc2c1 [Compound 111, N-(1-hydroxy-2-methylpropan-2-yl)thieno[3,2-b] pyridine-6-carboxamide]	–	–	≥ 70	–
Cc1cccc(CC(NC(=O)c2cnc3ccsc3c2)C(C)(C)O)c1 (centres unmarked) [Compound 114, N-(3-hydroxy-3-methyl-1-(m-tolyl)butan-2-yl)thieno[3,2-b] pyridine-6-carboxamide]	–	–	≥ 70	–
COc1cc(C(O)C(C)(C)NC(=O)c2cnc3ccsc3c2)ccc1F (centres unmarked) [Compound 119, N-(1-(4-fluoro-3-methoxyphenyl)-1-hydroxy-2-methylpropan-2-yl)thieno[3,2-b] pyridine-6-carboxamide]	≥ 70	–	≥ 70	inhibition of growth at 300 ppm (Pyricularia oryzae): ≥ 70%; pest or weed control at 500 ppm (Phakopsora pachyrhizi): ≥ 70%
COc1cc(C(O)C(C)(C)NC(=O)c2cnc3c(ccn3C)c2)ccc1F (centres unmarked) [Compound 123, N-(1-(4-fluoro-3-methoxyphenyl)-1-hydroxy-2-methylpropan-2-yl)-1-methyl-1H-pyrrolo[2,3-b]pyridine-5-carboxamide]	–	–	≥ 70	–
CC(C)(COC(=O)c1cccc(F)c1)NC(=O)c1cnc2cc[nH]c2c1 [Compound 156, 2-methyl-2-(1H-pyrrolo[3,2-b]pyridine-6-carboxamido)propyl 3-fluorobenzoate]	–	–	≥ 70	–
C=C(C)CC(C)(COc1ccccc1F)NC(=O)c1cnc2cc[nH]c2c1 (centres unmarked) [Compound 175, N-(1-(2-fluorophenoxy)-2,4-dimethylpent-4-en-2-yl)-1H-pyrrolo[3,2-b] pyridine-6-carboxamide]	≥ 70	–	≥ 70	inhibition of growth at 300 ppm (Colletotrichum capsici): ≥ 70%
Cn1cc(Br)c2cc(C(=O)NC(C)(C)COCc3ccccc3C#N)cnc21 [Compound 196]	–	–	≥ 70	–
Cc1ccc(COCC(C)(C)NC(=O)c2cnc3c(c2)c(Br)cn3C)c(C)c1 [Compound 201, 3-bromo-N-(1-((2,4-dimethylbenzyl)oxy)-2-methylpropan-2-yl)-1-methyl-1H-pyrrolo[2,3-b]pyridine-5-carboxamide]	–	–	≥ 70	–
CC(C)(COc1ccc(F)cn1)NC(=O)c1cnc2ccsc2c1 [Compound 207, N-(1-((5-fluoropyridin-2-yl)oxy)-2-methylpropan-2-yl)thieno[3,2-b] pyridine-6-carboxamide]	–	–	≥ 70	–
CC(C)(COc1ccccn1)NC(=O)c1cnc2ccsc2c1 [Compound 212, N-(2-methyl-1-(pyridin-2-yloxy)propan-2-yl)thieno[3,2-b] pyridine-6-carboxamide]	–	–	≥ 70	–
Cn1cc(Br)c2cc(C(=O)NC(C)(C)COc3ccc(F)cn3)cnc21 [Compound 216, 3-bromo-N-(1-((5-fluoropyridin-2-yl)oxy)-2-methylpropan-2-yl)-1-methyl-1H-pyrrolo[2,3-b]pyridine-5-carboxamide]	–	–	≥ 70	–
Cn1cc(Cl)c2cc(C(=O)NC(C)(C)COc3ccccn3)cnc21 [Compound 219, 3-chloro-1-methyl-N-(2-methyl-1-(pyridin-2-yloxy)propan-2-yl)-1H-pyrrolo[2,3-b] pyridine-5-carboxamide]	–	≥ 70	–	inhibition of growth at 300 ppm (Pyricularia oryzae): ≥ 70%
Cn1cc(Cl)c2cc(C(=O)NC(C)(C)COc3ccc(F)cn3)cnc21 [Compound 221, 3-chloro-N-(1-((5-fluoropyridin-2-yl)oxy)-2-methylpropan-2-yl)-1-methyl-1H-pyrrolo[2,3-b]pyridine-5-carboxamide]	–	≥ 70	–	–
Cn1ccc2cc(C(=O)NC(C)(C)COc3ccnc(Cl)c3)cnc21 [Compound 229, N-(1-((2-chloropyridin-4-yl)oxy)-2-methylpropan-2-yl)-1-methyl-1H-pyrrolo[2,3-b]pyridine-5-carboxamide]	–	–	≥ 70	–
Cn1cc(Br)c2cc(C(=O)NC(C)(C)COCc3cc(F)ccc3Cl)cnc21 [Compound 232, 3-bromo-N-(1-((2-chloro-5-fluorobenzyl)oxy)-2-methylpropan-2-yl)-1-methyl-1H-pyrrolo[2,3-b]pyridine-5-carboxamide]	≥ 70	≥ 70	–	–
CC(C)(COc1ccc(F)cn1)NC(=O)c1cnc2c(c1)CCC2 [Compound 233, N-(1-((5-fluoropyridin-2-yl)oxy)-2-methylpropan-2-yl)-6,7-dihydro-5H-cyclopenta[b]pyridine-3-carboxamide]	–	–	≥ 70	–
CON(C(=O)c1cnc2c(ccn2C)c1)C(C)Cc1ccccc1F (centres unmarked) [Compound 239, N-(1-(2-fluorophenyl)propan-2-yl)-N-methoxy-1-methyl-1H-pyrrolo[2,3-b]pyridine-5-carboxamide]	≥ 70	≥ 70	–	inhibition of growth at 300 ppm (Pyricularia oryzae): ≥ 70%
CC(C)(COc1ccccn1)NC(=O)c1cc2c(nc1Cl)CCC2 [Compound 242, 2-chloro-N-(2-methyl-1-(pyridin-2-yloxy)propan-2-yl)-6,7-dihydro-5H-cyclopenta[b]pyridine-3-carboxamide]	–	≥ 70	–	–
CC(C)(COc1ccnc(Cl)c1)NC(=O)c1cc2c(nc1Cl)CCC2 [Compound 244, 2-chloro-N-(1-((2-chloropyridin-4-yl)oxy)-2-methylpropan-2-yl)-6,7-dihydro-5H-cyclopenta[b]pyridine-3-carboxamide]	≥ 70	≥ 70	–	–
O=C(NC1(Cc2ccccc2)CC1)c1cc2c(nc1Cl)CCC2 [Compound 246, N-(1-benzylcyclopropyl)-2-chloro-6,7-dihydro-5H-cyclopenta[b]pyridine-3-carboxamide]	–	–	≥ 70	–
COc1nc2c(cc1C(=O)NCC1(c3ccccc3)CC1)CCC2 [Compound 247, 2-methoxy-N-((1-phenylcyclopropyl)methyl)-6,7-dihydro-5H-cyclopenta[b]pyridine-3-carboxamide]	≥ 70	≥ 70	–	inhibition of growth at 300 ppm (Colletotrichum capsici): ≥ 70%
O=C(NCC1(c2ccccc2)CC1)c1cc2c(nc1Cl)CCC2 [Compound 248, 2-chloro-N-((1-phenylcyclopropyl)methyl)-6,7-dihydro-5H-cyclopenta[b]pyridine-3-carboxamide]	–	–	≥ 70	–
COc1nc2c(cc1C(=O)NC(C)CCc1ccccc1)CCC2 (centres unmarked) [Compound 249, 2-methoxy-N-(4-phenylbutan-2-yl)-6,7-dihydro-5H-cyclopenta[b]pyridine-3-carboxamide]	≥ 70	–	≥ 70	–
CC(CCc1ccccc1)NC(=O)c1cc2c(nc1Cl)CCC2 (centres unmarked) [Compound 250, 2-chloro-N-(4-phenylbutan-2-yl)-6,7-dihydro-5H-cyclopenta[b]pyridine-3-carboxamide]	–	–	≥ 70	–
